These results are taken from a melting point compilation (Tetko et al.; mined from patent text by program, amines drawn as free bases though some values may be those of a salt).

Take `Cc1nc(N2CCN(Cc3ccc(F)cc3)C2=O)sc1C(=O)NCc1ccc(C(F)F)o1`: the melting point (usually the temperature, or range, at which the solid turns liquid) is 173 to 174 °C.

Molecule `N[C@H]1CCN(c2ccc3c(NC(=O)CCc4ccccc4Cl)c(Cl)ccc3n2)C1` showed a melting point of 200 to 212 °C. The value for `CC(=O)Nc1ncc(Sc2nnc(C)s2)s1` was 242 to 244 °C. With `Cc1ccc(-c2c(C(=O)O)n(CCCBr)c(=O)c3ncccc23)cc1`, the melting point was 194 to 196 °C. The value for `COc1ccc2nc(NC(=O)C(CC3CCCC3)c3ccc(S(=O)(=O)Nc4ccccc4)cc3)sc2n1` (stereo unspecified) was 223 to 226 °C; that for `CS(=O)(=O)Nc1ccc2ncnc(N)c2c1` was 287 to 290 °C.

For `O=c1oc(Nc2ccccc2F)nc2ccccc12`, the melting point lay in the range of 152 to 155 °C. Under `CC(=O)Nc1ccc(-c2nc3n(c2-c2ccc(NC(C)=O)cc2)CCS3)cc1` stands 285 to 290 °C. As for `COC(=O)C1=C(N)CC2CC[C@H]1N2C`, the melting point was 95 to 98 °C. Under `CC(C)(C)c1ccc(N2C(=O)c3ccc4c5cccc6cccc(c7ccc(c3c47)C2=O)c65)cc1` stands above 330 °C; under `N=C(Nc1ccc(Cl)cc1)Nc1ncccc1OCc1c(Cl)cccc1Cl`, 192 to 195 °C. The value for `CCCC(=O)NCCC1CCc2cc(OC)ccc21` (single isomer, unassigned; (-)) was 79 to 80 °C; that for `NC(=O)C=Cc1cccs1` was 153 °C. The value for `O=C(O)c1ccc(CN2Cc3ccccc3Cc3ccccc32)cc1` was 198 °C. In the case of `CC(C)(C)OC(=O)NC(Cc1ccccc1)C(O)CNCC(O)C(Cc1ccccc1)NC(=O)C1c2ccccc2CN1C=O` (stereo unspecified), the melting point lay within 174 to 176 °C. The value for `C(C#CSCc1ccccc1)#CSCc1ccccc1` was 38 to 39 °C. On to `CN(C)c1ccc(C(=N)NC=Cc2ccc([N+](=O)[O-])cc2)cc1`, for which the melting point was 191 to 193 °C. The value for `N#CC(C#N)(CCCSC(F)(F)F)CC(F)(F)C(F)(F)C(F)(F)C(F)(F)C(F)(F)F` was 88 to 90 °C; that for `CN(Cc1ccc(NC(=O)C2=Cc3cc(-c4ccc(OCc5ccc(Cl)s5)cc4)ccc3S(=O)(=O)CC2)cc1)C1CCOCC1` was 207 to 210 °C; that for `N#Cc1c(N2CCc3ccccc3CC2)nc(CC(N)=O)[nH]c1=O` was above 200 °C.

In turn, `COc1ccccc1NC(=O)Nc1ccc(CC(=O)OC(C)(C)C)cc1OC` yielded a melting point of 132 to 134 °C.

As to `CC(C)CC(=O)N1CCC(c2nc3cc(-c4ccc(C(N)=O)c(F)c4)ccc3o2)CC1`, the melting point lay within 186 to 190 °C.

For the molecule `CC(C)NC1=NS(=O)(=O)c2ccc(CC(N)=O)cc2N1`, the melting point fell in the range of 321 to 325 °C. The value for `CCN(CC)C(=O)c1c(CO)ccc(F)c1[Si](C)(C)C` was 107 to 108 °C; that for `CC(C)c1ccc(N(Cc2ccc(N(C)C)cc2)C(=O)C2CCOc3ccccc32)cc1` (stereo unspecified) was 110 to 112 °C; that for `CN(N=Cc1ccc(Br)cc1)C(=O)c1[nH]c2ccccc2c1-c1ccccc1` was 210 to 212 °C. Under `O=C(O)c1ccc(-c2ccc3cc(OCc4ccccc4)c(C45CC6CC(CC(C6)C4)C5)cc3c2)s1` stands 170 to 171 °C; under `CCOC(=O)C(=O)Nc1cccc(O)c1C(N)=O`, 200 to 202 °C; under `Nc1ccc(C(=O)OCc2ccccc2)c(F)n1`, 92 to 94 °C. The value for `CCCCNC(=O)c1cccc(S(=O)(=O)NC(=O)c2ccc(C(=O)NCC(=O)OC)nc2)c1` was 198 to 200 °C. In turn, `Cc1cc(Cl)cc(C(=O)NC2(C)CS(=O)(=O)C2)c1NC(=O)c1cc(C(F)(F)F)nn1-c1ncccc1Cl` displayed a melting point of 168 to 171 °C.

`COc1cc(Nc2c(C#N)cnc3cc(-c4ccc(CNCCS(C)(=O)=O)o4)ccc23)c(Cl)cc1Cl` gave a melting point of 171 to 174 °C. On to `O=C(NCCc1cccc(-c2nc(=O)c3ccccc3s2)n1)Nc1ccccc1`, for which the melting point was in the range of 235 to 236 °C.

For the molecule `CC(=O)N1CCNC1=NC(c1ccccc1)c1ccccc1`, the melting point lay in the range of 234 to 236 °C.

For `COC1=C(OC)C(=O)C(CCCCCCCCCC(=O)N[C@H](Cc2ccccc2)C(=O)O)=C(C)C1=O`, the melting point was in the range of 96 to 98 °C. Under `CCCS(=O)(=O)N1C[C@@H](C)C[C@H](Nc2ncccc2-c2cnc3[nH]ccc3n2)C1` stands 178 to 180 °C. The value for `O=C(O)Cc1c(C(=O)O)c2cc(Oc3ccc(C(F)(F)F)cc3)ccc2n1-c1ccc(OC(F)(F)F)cc1` was 257 to 259 °C; that for `COC(=O)c1sc(C)c2[nH]c(C(F)(F)C(F)(F)F)nc12` was 156 to 157 °C. Consider `CCCCn1c(C)nc(N2CCc3ccccc3CC2)c([N+](=O)[O-])c1=O`, for which the melting point was in the range of 158 to 161 °C. The value for `CS(=O)(=O)Nc1cccc(C=C2c3ccccc3CCc3ccccc32)c1` was 66.3 °C. In turn, `CCCCCCCCCCCC(=O)OC1CC(c2ccccc2)NC(c2ccccc2)C1` (stereo unspecified) had a melting point of 40 to 42 °C. The value for `COc1cc2c(cc1OC)C1c3ccccc3CCN1C2` (stereo unspecified) was 186 °C; that for `CCOC(=O)CC[C@H](NC(=O)c1ccc(C(CO)CC2CNc3nc(NC(=O)C(C)(C)C)nc(O)c3C2)cc1)C(=O)OCC` (stereo partly specified) was 133 to 135 °C. Under `O=C(O)c1ccccc1S(=O)(=O)c1cc(Cl)ccc1C(=O)O` stands 276 to 277 °C; under `O=C(O)CNC(=O)n1cc(C(=O)c2ccn3c2CSC3c2cccnc2)c2ccc(-c3ccc(F)cc3)cc21` (stereo unspecified), 255 °C; under `N=c1ccccn1CC(O)COc1cccc2ccccc12` (stereo unspecified), 138 to 141 °C.

On to `CC(C)(CO)Cc1ccc(CC(C)(C)CO)cc1`, for which the melting point is 104 to 105 °C. Under `CCOC(=O)c1ccc(Br)c(OCC)c1N(CC)S(C)(=O)=O` stands 43 to 45 °C; under `CCOC(=O)C(=O)Nc1cc(C#N)c(C(C)=O)cc1[N+](=O)[O-]`, 142 to 144 °C; under `CS(=O)(=O)N(c1ccc(Cl)c(C(=O)Nc2cccc3c4c(oc23)CCCC4)c1Cl)S(C)(=O)=O`, 237 to 238 °C. The value for `O=C(O)C(=Cc1cccnc1)c1ccc(Cl)cc1Cl` was 208 to 211 °C; that for `O=C(CNC(=O)OCc1ccccc1)OCc1ccccc1` was 72 °C.

As to `O=C(Nc1ccc(O)cc1)Nn1cnc2ccccc2c1=O`, the melting point is 220 to 223 °C.

With `CN1C(=O)N(C)C(O)C1O` (stereo unspecified), the melting point was 140 °C.

As for `O=C1NC(=O)N2c3ccccc3[C@H]3CCN4CCC[C@H]1[C@H]4[C@H]32` (racemic), the melting point was found to be 235 °C. For `Cc1cccc(C)c1N(CCCc1cccnc1)C(=O)CC(C)N1C(=O)c2ccccc2C1=O` (stereo unspecified), the melting point lay in the range of 169 to 171 °C. Take `CC(C)(C)C(=O)c1c[nH]c2ncc(-c3cccc(NS(=O)(=O)c4ccccc4)c3)nc12`: the melting point fell in the range of 217 to 219 °C. The value for `CCOC(=O)c1cccn1CCN1CCC(=C2c3ccn(C)c3CCn3ccnc32)CC1` was 162 °C. The value for `O=S1(=O)NC(c2ccccc2)Nc2c(Br)cc(Br)cc21` (stereo unspecified) was 186 to 189 °C. Turning to `COc1ccc(Oc2ccc(C(=O)NC(C(=O)O)C(C)C)cc2)cc1` (stereo unspecified), the melting point was 156 °C. Under `CC(C)(C)OC(=O)Nc1ccc(C#Cc2cccc(C#Cc3ccc(NC(=O)OC(C)(C)C)cc3)c2C(=O)O)cc1` stands 118 °C; under `Cn1c(=O)c(-c2ccccc2Cl)cc2cnc(NC3C4CN(C(=O)Nc5ccc(CC(=O)O)cc5)CC43)nc21` (stereo unspecified), 190 to 197 °C; under `COc1ccc(CCNC(=O)NO)cc1OC`, 109 to 111 °C. Under `COc1ccc(OC)c(Nc2ncc(C(=O)O)c(=O)[nH]2)c1` stands 260 to 262 °C.

Molecule `COc1cc2cc3ncc(C#N)c(Nc4ccc(Cl)cc4Cl)c3cc2cc1OC` gave a melting point of 271 to 273 °C. The value for `CCCC(=Cc1ccccc1)CN1CCc2nc(N)sc2CC1` was 77 to 80 °C. Take `OCc1cc(Br)cnc1Cl`: the melting point is 86.7 to 87.5 °C. Regarding `C/C(=N\O)c1cccc(NC(=O)NCC(=O)N(CC(=O)N2CCCC(C)(C)C2)c2ccccc2)c1`, the melting point amounted to 248 °C. The value for `CCC1(CC)C(=O)N(C(C)(C)C)CC(C)(C)N1OC(C(=O)O)c1ccccc1` (stereo unspecified) was 125 to 133 °C; that for `COc1cc(Nc2nccc(-c3ccc(NCCCN4CCN(C)CC4)nc3)n2)cc(OC)c1OC` was 183 to 184 °C; that for `O=c1nc(-c2cccc(CSCc3ccccc3)n2)sc2ccccc12` was 126 to 128 °C. Under `CC(N)c1ccc(NS(C)(=O)=O)c(Sc2ccc(F)cc2F)c1` (stereo unspecified) stands 165 to 166 °C; under `Cc1cccc(Cl)c1OC1CN(C(=O)N(C)C)C1`, 46 to 47 °C; under `COc1cc(C(=O)NN)cc(OC)c1OCCCN(C)C`, 95 to 96 °C. Under `CCOC(=O)c1cnn(-c2ccc(Cl)cc2C(F)(F)F)c1N` stands 114 to 116 °C; under `c1ccc2c(c1)Nc1cc(-c3csc(CN4CCCCC4)n3)ccc1S2`, 186 to 188 °C. Molecule `CCCc1c(OCCCCCc2c(Cl)ccc(OC)c2OC)ccc(C(=O)OC)c1O` came in with a melting point of 53 to 55 °C. Under `CCn1cc(C(=O)O)c(=O)c2cc(F)c(N3CCN(C)C(c4cc[nH]c4)C3)cc21` (stereo unspecified) stands 150 to 152 °C. The molecule `COc1ccc2c(c1)CCc1cc(Nc3ccccc3N)ccc1C2=O` gave a melting point of 200 °C. Under `Cc1cc2cc(C(=O)O)ccc2s1` stands 220 to 222 °C; under `O=C1C=CC(Br)N(CCl)N1` (stereo unspecified), 90 °C.

`O=C(O)Cc1c(Cl)cnc2c(NC(=O)c3c(Cl)cccc3Cl)cccc12`: the melting point was 257 to 259 °C. Under `CC(C(N)=O)c1ccc(-c2ccc(F)cc2F)c(F)c1` (stereo unspecified) stands 136 to 137 °C; under `CC(=O)CC(=O)OC(c1ccccc1)c1ccccc1`, 44 to 54 °C. For the molecule `CCC1(C)CC2(NC(=O)N(C)C2=O)C(C)C(C)(CC)N1` (stereo unspecified), the melting point lay in the range of 137 to 142 °C. The value for `CC(C)(C)OC(=O)N1CCC(C(=O)NCCC(=O)OCc2ccccc2)C1` (stereo unspecified) was 83 to 84 °C.
